Blank lines part the entries; values can stand above or below the molecule they belong to.
Tests used:
Assay type in all cases: physicochemical
[1] = Example 3: stability of black currant extract anthocyanosides, 4 hours at 37° C., pH 7.0, with/without DHLA, GSH or L-cysteine (HPLC); settings: for Peak Area, Fresh solution: black currant extract 60 mg/100 ml buffer pH 7.0, fresh sample; for % left, DHLA 20 mg / % left, GSH 20 mg / % left, L-cysteine 20 mg / Peak Area, DHLA 20 mg / Peak Area, GSH 20 mg / Peak Area, L-cysteine 20 mg / % left, Blank / Peak Area, Blank: pH 7.0, 37° C., 4 hours; for % left, Blank / Peak Area, Blank: unprotected
Experimental: (§1) Sample a) 60 mg black currant extract [35% anthocyanosides] (0.037 mmol anthocyanosides expressed as cyanidin-3-O-rutinoside) were added to a 100 ml flask and filled to volume with sodium phosphate buffer (5% [w/w], pH=7.0) and stirred until dissolution was complete. A 1 ml sample was taken immediately, acidified with formic acid to pH=1.0 and analyzed by HPLC for the content of anthocyanosides (Fresh Sample). The remaining solution was kept for 4 hours at 37° C. (water bath) with stirring. Thereafter samples (Blank sample), representing unprotected degradation, were taken and acidified.
(§2) Sample b) 20 mg reduced L-glutathione (0.065 mmol) were added to a 100 ml flask with 60 ml sodium phosphate buffer (5% [w/w], pH=7.0) and stirred until dissolution was complete. 60 mg black currant extract [35% anthocyanosides] (0.037 mmol anthocyanosides expressed as cyanidin-3-O-rutinoside) were then added and the flask was filled to volume with sodium phosphate buffer (5% [w/w], pH=7.0) and kept for 4 hours at 37° C. (water bath) with stirring.
as §2, with “Sample c)” for “Sample b)”, “mg dihydrolipoic acid (0.096” for “mg reduced L-glutathione (0.065”, “was completed.” for “was complete.”, “were” for “were then”, “added to” for “added and”, “the flask,” for “the flask was”
as §2, with “Sample d)” for “Sample b)”, “mg L-cysteine acid (0.165” for “mg reduced L-glutathione (0.065”, “were” for “were then”, “added to” for “added and”, “the flask,” for “the flask was”
After 4 hours samples were taken, acidified immediately with formic acid to pH=1.0 and analyzed by HPLC for the content of anthocyanosides. Degradation is expressed as decrease in peak area of individual peaks (calculated as % left after 4 hours).
(§3) Samples were prepared as outlined below in HPLC Analytical Method. Test stability samples were immediately acidified (to block degradation) and injected undiluted following the detailed description provided below.
HPLC Analytical Method (Materials, Instruments and Methods): […]

[2] = Example 9: stability of bilberry extract anthocyanosides, 4 hours at 37° C., pH 7.0, with/without L-cysteine; settings: for Peak Area, Fresh solution: bilberry extract 60 mg in buffer pH 7.0, fresh sample; for % left, L-cysteine 20 mg / Peak Area, L-cysteine 20 mg / % left, Blank / Peak Area, Blank: pH 7.0, 37° C., 4 hours; for % left, Blank / Peak Area, Blank: unprotected
Experimental: Sample a) 60 mg bilberry extract [37% anthocyanosides] (0.048 mmol anthocyanosides expressed as cyanidin-3-O-glucoside) were added to a 100 ml flask with 60 ml sodium phosphate buffer (5% [w/w], pH=7.0), and stirred until dissolution was complete. A 1 ml sample was taken immediately and acidified with formic acid to pH=1.0 and analyzed by HPLC for the content of anthocyanosides (Fresh Sample). The remaining solution was kept for 4 hours at 37° C. (water bath) with stirring. Thereafter another sample (Blank sample), representing unprotected degradation, was taken and acidified.
Sample b) 20 mg L-cysteine […] were added to a 100 ml flask with 60 ml sodium phosphate buffer (5% [w/w], pH=7.0) and stirred until dissolution was complete. 60 mg bilberry extract [37% anthocyanosides] (0.048 mmol expressed as cyanidin-3-O-glucoside) were then added to the flask and stir to fully dissolve, then kept for 4 hours at 37° C. (water bath) with stirring.
After 4 hours, samples were taken and acidified immediately with formic acid to pH=1.0 and analyzed by HPLC for the content of anthocyanosides. Degradation is expressed as decrease in peak area of individual peaks (calculated as % left after 4 hours).
Samples were prepared as outlined above in the HPLC Analytical Method. Test stability samples were immediately acidified (to block degradation) and injected undiluted following the detailed description provided below.

[3] = Example 5: degradation over time of black currant anthocyanosides at 37° C., pH 7.0, with/without GSH (HPLC); settings: pH 7.0, 37° C.; for %-residual anthocyanosides (% left): 4 hours
Experimental: as §1, with “flask,” for “flask and”, “anthocyanosides.” for “anthocyanosides (Fresh Sample).”, “kept” for “kept for 4 hours”, “stirring and 1 ml” for “stirring. Thereafter”, “Samples),” for “sample),”, “every 15 minutes. The samples were analyzed for selected anthocyanosides by HPLC.” for “and acidified.”
as §2, with “added,” for “then added and”, “for” for “for 4 hours”, “stirring. Every 15 minutes 1 ml samples were taken and analyzed for selected anthocyanosides by HPLC.” for “stirring.”
as §3

[4] = Example 1: stability of bilberry extract anthocyanosides, 4 hours at 37° C., pH 7.0, with/without DHLA or GSH (HPLC); settings: for % left, GSH (4 hours) / Peak Area, GSH (4 hours): 20 mg reduced L-glutathione; for % left, GSH (4 hours) / Peak Area, GSH (4 hours) / % left, DHLA (4 hours) / Peak Area, DHLA (4 hours) / % left, Blank (4 hours) / Peak Area, Blank (4 hours): pH 7.0, 37° C.; for % left, DHLA (4 hours) / Peak Area, DHLA (4 hours): 30 mg dihydrolipoic acid; for Peak Area, Fresh (0 hours): bilberry extract 60 mg/100 ml sodium phosphate buffer pH 7.0, fresh sample; for % left, Blank (4 hours) / Peak Area, Blank (4 hours): unprotected
Experimental: (0.048 mmol anthocyanosides expressed as cyanidin-3-O-glucoside) were added to a 100 ml flask and filled to volume with sodium phosphate buffer (5% [w/w], pH=7.0), and stirred until dissolution was complete. A 1 ml sample was taken immediately and acidified with formic acid to pH=1.0 and analyzed by HPLC for the content of anthocyanosides (Fresh Sample). The remaining solution was kept for 4 hours at 37° C. (water bath) with stirring. Thereafter another sample (Blank sample), representing unprotected degradation, was taken and acidified.
(0.048 mmol expressed as cyanidin-3-O-glucoside) were then added and the flask was filled to volume with sodium phosphate buffer (5% [w/w], pH=7.0) and kept for 4 hours at 37° C. (water bath) with stirring.
Quantitation: External standardization based on linear regression analysis. The response factors of all anthocyanosides separated is quantitified against cyanidin-3-O-glucoside.
Test solutions from incubation experiments (with/without cells and with/without stabilizing agents) were used for analysis after stabilization of anthocyanosides with formic acid. Samples were cleared by filtration prior to injection on to HPLC-system.

[5] = GSH protected sample (20 mg), 0:00 h
[6] = GSH protected sample (20 mg), 0:15 h
[7] = GSH protected sample (20 mg), 0:45 h
[8] = GSH protected sample (20 mg), 1:00 h
[9] = GSH protected sample (20 mg), 1:15 h
[10] = GSH protected sample (20 mg), 1:45 h
[11] = GSH protected sample (20 mg), 2:00 h
[12] = GSH protected sample (20 mg), 2:15 h
[13] = GSH protected sample (20 mg), 2:45 h
[14] = GSH protected sample (20 mg), 3:00 h
[15] = GSH protected sample (20 mg), 3:15 h
[16] = GSH protected sample (20 mg), 3:45 h
[17] = GSH protected sample (20 mg), 4:00 h
[18] = GSH protected sample (20 mg), 4:15 h

Peak Area, Fresh solution [1]: 1481 | % left, DHLA 20 mg [1]: 52.0% | % left, GSH 20 mg [1]: 50.4% | % left, L-cysteine 20 mg [1]: 36.7% | Peak Area, DHLA 20 mg [1]: 770.7 | Peak Area, GSH 20 mg [1]: 745.6 | Peak Area, L-cysteine 20 mg [1]: 543.0 | % left, Blank [1]: 9.5% | Peak Area, Blank [1]: 140.8 | Peak Area, Fresh solution [2]: 726.6 | % left, L-cysteine 20 mg [2]: 48.3% | Peak Area, L-cysteine 20 mg [2]: 350.8 | % left, Blank [2]: 6.4% | Peak Area, Blank [2]: 46.3 | Peak Area ([3]; Blank sample, 0:00 h): 1480.7 | Peak Area ([3]; Blank sample, 0:15 h): 969.6 | Peak Area ([3]; Blank sample, 0:30 h): 907.9 | Peak Area ([3]; Blank sample, 0:45 h): 745.2 | Peak Area ([3]; Blank sample, 1:00 h): 702.1 | Peak Area ([3]; Blank sample, 1:30 h): 605.4 | Peak Area ([3]; Blank sample, 1:45 h): 599.9 | Peak Area ([3]; Blank sample, 2:00 h): 465.1 | Peak Area ([3]; Blank sample, 2:15 h): 449.8 | Peak Area ([3]; Blank sample, 2:30 h): 394.0 | Peak Area ([3]; Blank sample, 2:45 h): 362.7 | Peak Area ([3]; Blank sample, 3:00 h): 304.8 | Peak Area ([3]; Blank sample, 3:15 h): 285.1 | Peak Area ([3]; Blank sample, 3:30 h): 208.8 | Peak Area ([3]; Blank sample, 3:45 h): 214.5 | Peak Area ([3]; Blank sample, 4:00 h): 140.8 | %-residual anthocyanosides (% left) ([3]; Blank): 10% | Peak Area [3, 5]: 1464.0 | Peak Area [3, 6]: 1280.4 | Peak Area [3, 7]: 1209.3 | Peak Area [3, 8]: 1219.0 | Peak Area [3, 9]: 1178.1 | Peak Area [3, 10]: 1051.8 | Peak Area [3, 11]: 1077.0 | Peak Area [3, 12]: 981.9 | Peak Area [3, 13]: 876.8 | Peak Area [3, 14]: 917.2 | Peak Area [3, 15]: 812.5 | Peak Area [3, 16]: 742.7 | Peak Area [3, 17]: 745.6 | Peak Area [3, 18]: 682.0 | %-residual anthocyanosides (% left) ([3]; GSH-protected): 51% | % left, GSH (4 hours) [4]: 48.3% | Peak Area, GSH (4 hours) [4]: 350.8 | % left, DHLA (4 hours) [4]: 57.1% | Peak Area, DHLA (4 hours) [4]: 414.8 | Peak Area, Fresh (0 hours) [4]: 726.6 | % left, Blank (4 hours) [4]: 6.4% | Peak Area, Blank (4 hours) [4]: 46.3
SMILES: OC[C@H]1O[C@@H](Oc2cc3c(O)cc(O)cc3[o+]c2-c2cc(O)c(O)c(O)c2)[C@H](O)[C@@H](O)[C@@H]1O [Dp-3O-Glc, Delphinidin 3-o-glucoside]

Peak Area, Fresh solution [1]: 491.1 | % left, DHLA 20 mg [1]: 51.7% | % left, GSH 20 mg [1]: 64.3% | % left, L-cysteine 20 mg [1]: 38.0% | Peak Area, DHLA 20 mg [1]: 254.1 | Peak Area, GSH 20 mg [1]: 315.7 | Peak Area, L-cysteine 20 mg [1]: 186.8 | % left, Blank [1]: 31.4% | Peak Area, Blank [1]: 154.0 | Peak Area, Fresh solution [2]: 987.9 | % left, L-cysteine 20 mg [2]: 80.7% | Peak Area, L-cysteine 20 mg [2]: 797.5 | % left, Blank [2]: 41.5% | Peak Area, Blank [2]: 410.3 | Peak Area ([3]; Blank sample, 0:00 h): 491.1 | Peak Area ([3]; Blank sample, 0:15 h): 368.9 | Peak Area ([3]; Blank sample, 0:30 h): 361.9 | Peak Area ([3]; Blank sample, 0:45 h): 321.0 | Peak Area ([3]; Blank sample, 1:00 h): 312.0 | Peak Area ([3]; Blank sample, 1:30 h): 293.4 | Peak Area ([3]; Blank sample, 1:45 h): 283.8 | Peak Area ([3]; Blank sample, 2:00 h): 256.7 | Peak Area ([3]; Blank sample, 2:15 h): 250.3 | Peak Area ([3]; Blank sample, 2:30 h): 243.9 | Peak Area ([3]; Blank sample, 2:45 h): 226.8 | Peak Area ([3]; Blank sample, 3:00 h): 213.7 | Peak Area ([3]; Blank sample, 3:15 h): 204.9 | Peak Area ([3]; Blank sample, 3:30 h): 180.1 | Peak Area ([3]; Blank sample, 3:45 h): 181.6 | Peak Area ([3]; Blank sample, 4:00 h): 154.0 | %-residual anthocyanosides (% left) ([3]; Blank): 31% | Peak Area [3, 5]: 480.6 | Peak Area [3, 6]: 426.1 | Peak Area [3, 7]: 418.6 | Peak Area [3, 8]: 423.8 | Peak Area [3, 9]: 415.3 | Peak Area [3, 10]: 376.4 | Peak Area [3, 11]: 387.6 | Peak Area [3, 12]: 356.5 | Peak Area [3, 13]: 337.5 | Peak Area [3, 14]: 349.5 | Peak Area [3, 15]: 325.6 | Peak Area [3, 16]: 312.6 | Peak Area [3, 17]: 315.7 | Peak Area [3, 18]: 300.3 | %-residual anthocyanosides (% left) ([3]; GSH-protected): 66% | % left, GSH (4 hours) [4]: 80.7% | Peak Area, GSH (4 hours) [4]: 797.5 | % left, DHLA (4 hours) [4]: 67.9% | Peak Area, DHLA (4 hours) [4]: 671.1 | Peak Area, Fresh (0 hours) [4]: 987.9 | % left, Blank (4 hours) [4]: 41.5% | Peak Area, Blank (4 hours) [4]: 410.3
SMILES: OC[C@H]1O[C@@H](Oc2cc3c(O)cc(O)cc3[o+]c2-c2ccc(O)c(O)c2)[C@H](O)[C@@H](O)[C@@H]1O [Cn-3O-Glc, Cyanidin 3-o-glucoside]
